Literature values in patent US20070185035A1, “ENHANCED MUCOSAL ADMINISTRATION OF NEUROPROTECTIVE PEPTIDES” (Nastech Pharmaceutical Company Inc., priority 2005, published 2007).
Like-named read-outs stand apart in the source and are kept apart here.

Tests used:
ciliary motility = conditions: without obvious ultrastructural lesions
[1] = anesthetized rats

## 2-alkyl-4-hydroxyquinolines [pyo compound]
Ciliary motility
  concentration producing ciliostasis: 50 µg/mL

## CC(C)CC(N)B(O)O (centres unmarked) [boro-leucine]
aminopeptidases
  effectiveness in enzyme inhibition relative to bestatin: more than 100 times
  effectiveness in enzyme inhibition relative to puromycin: more than 1000 times

## human growth hormone: human growth hormone given nasally to rats with or without N-acetyl-L-cysteine
[1]; with N-acetyl-L-cysteine (ACS)
  nasal bioavailability: 12.2%
[1]; without N-acetyl-L-cysteine
  nasal bioavailability: 7.5%
